Laboratory results as given in ChEMBL document CHEMBL1139441, “Design, synthesis, molecular modeling studies, and calpain inhibitory activity of novel alpha-ketoamides incorporating polar residues at the P1'-position” (J Med Chem, 2004).
pKi: −log10 of the molar value.

Each compound was assayed against T1, Calpain-1 catalytic subunit (Sus scrofa, UniProt P35750) (assay: Binding affinity against porcine erythrocyte calpain I was determined).
T1 sequence (P35750 whole entry): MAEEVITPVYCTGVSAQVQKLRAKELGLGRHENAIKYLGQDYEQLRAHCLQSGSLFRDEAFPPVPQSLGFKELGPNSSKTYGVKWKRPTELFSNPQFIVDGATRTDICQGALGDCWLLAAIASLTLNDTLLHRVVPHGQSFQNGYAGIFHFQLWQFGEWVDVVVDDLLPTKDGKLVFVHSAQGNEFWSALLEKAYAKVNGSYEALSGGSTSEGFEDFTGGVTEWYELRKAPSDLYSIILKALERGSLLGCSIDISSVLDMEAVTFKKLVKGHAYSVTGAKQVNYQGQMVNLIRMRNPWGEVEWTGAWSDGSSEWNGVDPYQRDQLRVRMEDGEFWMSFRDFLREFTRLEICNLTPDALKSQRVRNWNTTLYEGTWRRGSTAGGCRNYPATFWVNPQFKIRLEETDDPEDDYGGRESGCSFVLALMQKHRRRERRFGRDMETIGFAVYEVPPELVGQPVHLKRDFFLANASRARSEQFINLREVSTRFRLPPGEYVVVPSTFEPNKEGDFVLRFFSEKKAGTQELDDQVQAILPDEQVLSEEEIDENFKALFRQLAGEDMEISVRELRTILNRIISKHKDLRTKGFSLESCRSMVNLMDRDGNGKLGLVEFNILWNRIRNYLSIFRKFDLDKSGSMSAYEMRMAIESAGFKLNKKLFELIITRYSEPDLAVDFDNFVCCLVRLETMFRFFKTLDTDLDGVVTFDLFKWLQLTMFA

**Q.** With `CC(C)CC(NC(=O)OCc1ccccc1)C(=O)N[C@@H](Cc1ccccc1)C(=O)C(=O)N[C@H](Cc1ccccc1)C(=O)O` (stereo partly specified) as the compound, how does the pKi read?
**A.** The pKi was < 3.37.

**Q.** `CC(C)CC(NC(=O)OCc1ccccc1)C(=O)N[C@@H](Cc1ccccc1)C(=O)C(=O)N[C@@H](Cc1ccccc1)C(=O)O` (stereo partly specified) was tested. Which pKi did it give?
**A.** Its pKi is 6.08.

**Q.** With `CC(C)CC(NC(=O)OCc1ccccc1)C(=O)N[C@@H](Cc1ccccc1)C(=O)C(=O)NNCc1ccccc1` (stereo partly specified) as the compound, how does the pKi read?
**A.** The pKi was 8.33.

**Q.** `COC(=O)[C@H](Cc1ccccc1)NC(=O)C(=O)[C@H](Cc1ccccc1)NC(=O)C(CC(C)C)NC(=O)OCc1ccccc1` (stereo partly specified) was tested. Which pKi did it give?
**A.** The pKi was 6.17.

**Q.** With `CC(C)CC(NC(=O)OCc1ccccc1)C(=O)N[C@@H](Cc1ccccc1)C(=O)C(=O)NCCc1ccccc1` (stereo partly specified) as the compound, how does the pKi read?
**A.** Its pKi is 7.27.

**Q.** `COC(=O)[C@@H](Cc1ccccc1)NC(=O)C(=O)[C@H](Cc1ccccc1)NC(=O)C(CC(C)C)NC(=O)OCc1ccccc1` (stereo partly specified) was tested. Which pKi did it give?
**A.** Its pKi is 6.03.
